What was measured:
[1] = test system: phosphorylated Akt (p-Akt); test: Immunoblot analysis of phosphorylated versus total Akt in BT-474 cells; type: cell-based, human; details: 48 h, 20 μg/ml trastuzumab, 1 μM gefitinib, 20 μM U0126 or 20 μM LY294002
Procedure: (§1) BT-474 cells were co-transfected in parallel with the ERE(5x)-regulated and TATA dual-luciferase reporter gene sets along with the indicated expression plasmids. […] In panel (B), the cells were incubated for 48 h in estrogen-free medium supplemented with dimethyl sulfoxide as the drug vehicle control, 20 μM U0126 (MEK inhibitor), or 20 μM LY294002 (PI3K inhibitor) as indicated. After incubation for 48 h, the cells were harvested for dual-luciferase assays. Data were analyzed as described in the legend to FIG. 2. (C) Immunoblot analysis of protein extracts (20 μg per sample) prepared from BT-474 cells treated as in panels A and B above for luciferase activity. The membrane was probed with antibodies that react specifically with ERRα. Reactive proteins were visualized by enhanced chemiluminescence and autoradiography. (D) Immunoblot analysis as in panel C above, only the membrane was probed with antibodies that react specifically with phosphorylated Akt (p-Akt), total Akt, phosphorylated MAPK (p-MAPK) or total MAPK.
(§2) Proteins were extracted in Cell Lysis Buffer (Cell Signaling Technology, Beverly, Mass.) supplemented with Protease Inhibitor Cocktail Set III and Phosphatase Inhibitor Cocktail Set II (Calbiochem). Protein amounts were quantified with Coomassie Protein Assay Reagent (Pierce Biotechnology) with BSA as the standard. […] In FIG. 5D, the membrane was probed sequentially with p44/42 MAPK polyclonal antibody, phospho-specific p44/42 MAPK (Thr202/Tyr204) monoclonal antibody E10, Akt polyclonal antibody, and phospho-specific Akt (Ser473) polyclonal antibody (Cell Signaling Technology). Reacting material was detected using horseradish peroxidase-conjugated secondary antibodies (Jackson ImmunoResearch Laboratories, West Grove, Pa.) together with enhanced chemiluminescence (Amersham Pharmacia) and autoradiography.

MCF-7 cells [2] = test: 7 day growth assay, DNA content per well, MCF-7 cells; details: 1I M gefitinib, 7 days
Procedure: Using 12-well plates, MCF-7 and BT-474 cells were seeded at 15,000 and 30,000 cells per well. Cells were cultured for 7 days in the presence of the indicated test agents with media changes at day 0, day 2 and day 5. Following the 7 day treatment course, cells were assayed for DNA content per well. The results shown represent the mean ± SEM of three replicate wells.
MCF-7 and BT-474 cells were seeded in 12-well plates at 15,000 and 30,000 cells per well, respectively. Cells were allowed to grow in the presence of the test agents for a total of 7 days, after which, they were harvested for measurement of DNA content per well using a fluorescent DNA quantification kit (Bio-Rad, Hercules, Calif.). Day 0 was considered to be 24 h after the cells were seeded, when the medium was initially replaced with fresh medium containing the test agents. The cell culture medium was again exchanged with fresh medium containing the appropriate test agents on days 2 and 5. […] The effects on cellular proliferation of the test agents are shown as the percentage of DNA amount per well relative to the control treated cells.

[3] = test system: phosphorylated MAPK (p-MAPK); test: Immunoblot analysis of phosphorylated versus total MAPK in BT-474 cells; type: cell-based, human; details: 48 h, 20 μg/ml trastuzumab, 1 μM gefitinib, 20 μM U0126 or 20 μM LY294002
Procedure: as §1, §2

BT-474 cells = details: literature statement; cited from earlier work
ERRα = test: Immunoblot analysis of ERRα expression in ERRα-transfected BT-474 cells; type: cell-based, human; details: BT-474 cells transfected with ERRα, 48 h; 20 μg/ml trastuzumab, 1 μM gefitinib, 20 μM U0126 or 20 μM LY294002
Procedure: as §1, §2

MCF-7 cells [4] = details: literature statement; cited from earlier work

## COc1cc2ncnc(Nc3ccc(F)c(Cl)c3)c2cc1OCCCN1CCOCC1 [gefitinib]
[1]
  phosphorylation of Akt / PI3K/Akt pathway activation (immunoblot): inhibited activation of the MEK/MAPK and PI3K/Akt signaling pathways
MCF-7 cells [2]
  effect on growth of MCF-7 cells: did not significantly affect the growth
[3]
  phosphorylation of MAPK / MEK/MAPK pathway activation (immunoblot): inhibited activation of the MEK/MAPK and PI3K/Akt signaling pathways
BT-474 cells
  effect on growth of BT-474 cells (known, ref. 26): significantly inhibit the growth
ERRα
  ERRα expression (immunoblot): expression was maintained
MCF-7 cells [4]
  effect on growth of MCF-7 cells (known, ref. 35): affect only minimally the growth
